Experimental findings from patent US12486302B2, “Somatostatin receptor antagonist compounds and methods of using the same” (CDRD VENTURES INC., priority 2016, dated 2025) are described below.

The target in the assay is somatostatin type 2 (SSTR2) receptors (Homo sapiens, UniProt P30874). Briefly: PathHunter β-Arrestin assay, antagonist mode, SSTR2. The format is cell-based. As to conditions: agonist challenge at EC80. Here is the method:
The PathHunter® β-Arrestin assay monitors the activation of a GPCR in a homogenous, non-imaging assay format using a technology developed by DiscoveRx called Enzyme Fragment Complementation (EFC) with β-galactosidase (β-Gal) as the functional reporter. […] EA is fused to β-Arrestin and […] is fused to the GPCR of interest. When the GPCR is activated and β-Arrestin is recruited to the receptor, ED and EA complementation occurs, restoring β-Gal activity which is measured using chemiluminescent PathHunter® Detection Reagents. For antagonist determination, cells were pre-incubated with the compounds followed by agonist challenge at the EC80 concentration. Data was normalized to the maximal and minimal response observed in the presence of EC80 ligand and vehicle. Compound activity was analyzed using CBIS data analysis suite ChemInnovation, CA). Percentage inhibition was calculated using the following formula: % Inhibition=100%×(1−(mean signal of test sample-mean signal of vehicle control)/(mean signal of EC80 control-mean signal of vehicle control)). Percentage inhibition was calculated at 10 concentrations in steps on a Log 3 scale ranging from […] to 5e-5 μM. The results were plotted for IC50 calculation.

pIC50: −log10 of the molar value. *1 amine or outer side, *2 acyl side, *3 side chain or, on linkers, in order; H or OH if unused. Where a SMILES comes first, the peptide text is derived from it. Bridges are numbered along the chain shown (N, C = ends). Side-chain parts run from the residue outwards. [ ]: non-standard residue; d: D form. The star is where a group is joined. ξ: configuration not given here. dPhe(4-CONH2) = NC(=O)c1ccc(C[C@@H](N)C(=O)O)cc1; dPhe(4-NH2) = Nc1ccc(C[C@@H](N)C(=O)O)cc1; Phe(4-Cl) = N[C@@H](Cc1ccc(Cl)cc1)C(=O)O; NH(4-MeO-phenyl) = COc1ccc(N*)cc1; Lys(Me) = CNCCCC[C@H](N)C(=O)O; ξY = NC(Cc1ccc(O)cc1)C(=O)O; CO = O=C([*:1])[*:2]; Bz = O=C(c1ccccc1)*; NHPh = c1ccc(N*)cc1

Sequence of somatostatin type 2 (SSTR2) receptors (P30874 whole entry, the tested form may be a part): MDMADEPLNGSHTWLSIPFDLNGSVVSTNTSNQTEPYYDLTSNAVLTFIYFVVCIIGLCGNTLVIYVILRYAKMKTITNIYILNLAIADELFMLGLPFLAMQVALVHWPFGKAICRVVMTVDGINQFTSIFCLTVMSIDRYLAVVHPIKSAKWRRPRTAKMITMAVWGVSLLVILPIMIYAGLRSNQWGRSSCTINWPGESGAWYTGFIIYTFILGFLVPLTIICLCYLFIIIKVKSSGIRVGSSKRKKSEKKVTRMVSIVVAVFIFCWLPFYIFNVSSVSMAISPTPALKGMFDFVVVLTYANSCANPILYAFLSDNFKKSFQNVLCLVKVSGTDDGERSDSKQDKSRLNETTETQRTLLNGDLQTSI

In the case of `C[C@@H](O)[C@@H]1NC(=O)[C@H](CCCCN)NC(=O)[C@@H](Cc2ccc(C(N)=O)cc2)NC(=O)[C@H](Cc2ccc(O)cc2)NC(=O)[C@@H](NC(=O)[C@@H](N)Cc2ccc(Cl)cc2)CSSC[C@@H](C(=O)NC(Cc2ccc(O)cc2)C(N)=O)NC1=O` (stereo in doubt) [Compound 39, H-Cpa-cyclo[Cys- Tyr-D-(4- carbamoyl)Phe- Lys-Thr-Cys]- DTyr-NH2], the pIC50 is below 6.00.

`CC(O)[C@@H]1NC(=O)[C@H](CCCCN)NC(=O)[C@@H](Cc2ccc(C(N)=O)cc2)NC(=O)[C@H](Cc2ccc(O)cc2)NC(=O)[C@H](NC(=O)[C@@H](N)Cc2ccc(Cl)cc2)CNC(=O)SC[C@@H](C(=O)N[C@H](Cc2ccc(O)cc2)C(N)=O)NC1=O` (stereo in doubt) [Compound 61, H-Cpa-cyclo[Dap- Tyr-DPhe (4-CONH2)- Lys-Thr-Cys]- DTyr-NH2]: the pIC50 is below 6.00.

In turn, `C[C@@H](O)[C@@H]1NC(=O)[C@H](CCCCN)NC(=O)[C@@H](Cc2ccc(C(N)=O)cc2)NC(=O)[C@H](Cc2ccc(O)cc2)NC(=O)[C@@H](NC(=O)[C@@H](N)Cc2ccc(Cl)cc2)CC=CC[C@@H](C(=O)N[C@H](Cc2ccc(O)cc2)C(N)=O)NC1=O` (stereo in doubt) [Compound 68] had a negative logarithm of the IC50 (pIC50) below 6.00.

Consider `CNCCCC[C@@H]1NC(=O)[C@@H](Cc2ccc(NC(=O)Nc3ccccc3)cc2)NC(=O)[C@H](Cc2ccc(O)cc2)NC(=O)[C@H](NC(=O)[C@@H](N)Cc2ccc(Cl)cc2)CSSC[C@@H](C(=O)NC(Cc2ccc(O)cc2)C(N)=O)NC(=O)[C@H]([C@@H](C)O)NC1=O` (stereo partly drawn) [Compound 25, H-Cpa-cyclo[D-Cys-Tyr-D-Phe(4-phenylureido)-Lys(N^ε-Me)-Thr-Cys]-D-Tyr-NH2] (H-[Phe(4-Cl)][dC]Y[dPhe(4-NH2)]([CO-NHPh])[Lys(Me)]TC[ξY]-NH2; disulfide 2-7), for which the pIC50 is 8.63.

The molecule `CC(=O)NCCCC[C@@H]1NC(=O)[C@@H](Cc2ccc(C(N)=O)cc2)NC(=O)[C@H](Cc2ccc(O)cc2)NC(=O)[C@H](NC(=O)[C@@H](N)Cc2ccc(Cl)cc2)CSSC[C@@H](C(=O)NC(Cc2ccc(O)cc2)C(N)=O)NC(=O)[C@H]([C@@H](C)O)NC1=O` (stereo partly drawn) [Compound 26, H-Cpa-cyclo[DCys- Tyr-D-(4- carbamoyl)Phe-(N- Acetyl)Lys-Thr-Cys]- DTyr-NH2] (H-[Phe(4-Cl)][dC]Y[dPhe(4-CONH2)]K(Ac)TC[ξY]-NH2; disulfide 2-7) had a pIC50 below 6.00.

`C[C@@H](O)[C@@H]1NC(=O)[C@H](CCCCN)NC(=O)[C@@H](Cc2ccc(NC(=O)c3ccccc3)cc2)NC(=O)[C@H](Cc2ccc(O)cc2)NC(=O)[C@H](NC(=O)[C@@H](N)Cc2ccc(Cl)cc2)CSSC[C@@H](C(=O)NC(Cc2ccc(O)cc2)C(N)=O)NC1=O` (stereo partly drawn) [Compound 27, H-Cpa-cyclo[DCys- Tyr-D-(4- Benzamidophenyl) Phe-Lys-Thr- Cys]-DTyr-NH2] (H-[Phe(4-Cl)][dC]Y[dPhe(4-NH2)](Bz)KTC[ξY]-NH2; disulfide 2-7) gave a pIC50 of 7.46.

As to `COc1ccc(NC(=O)Nc2ccc(C[C@H]3NC(=O)[C@H](Cc4ccc(O)cc4)NC(=O)[C@H](NC(=O)[C@@H](N)Cc4ccc(Cl)cc4)CSSC[C@@H](C(=O)N[C@H](Cc4ccc(O)cc4)C(N)=O)NC(=O)[C@H]([C@@H](C)O)NC(=O)[C@H](CCCCN)NC3=O)cc2)cc1` [Compound 28, H-Cpa-cyclo[DCys- Tyr-D-(4-(4- methoxyphenyl) ureido) Phe-Lys-Thr-Cys]- DTyr-NH2] (H-[Phe(4-Cl)][dC]Y[dPhe(4-NH2)]([CO-NH(4-MeO-phenyl)])KTC[dY]-NH2; disulfide 2-7), the pIC50 was 6.98.

`C[C@@H](O)[C@@H]1NC(=O)[C@H](CCCNC(=N)N)NC(=O)[C@@H](Cc2ccc(C(N)=O)cc2)NC(=O)[C@H](Cc2ccc(O)cc2)NC(=O)[C@H](NC(=O)[C@@H](N)Cc2ccc(Cl)cc2)CSSC[C@@H](C(=O)NC(Cc2ccc(O)cc2)C(N)=O)NC1=O` (stereo partly drawn) [Compound 29, H-Cpa-cyclo[DCys- Tyr-D-(4- carbamoyl)Phe-Arg- Thr-Cys]-DTyr-NH2] (H-[Phe(4-Cl)][dC]Y[dPhe(4-CONH2)]RTC[ξY]-NH2; disulfide 2-7): the pIC50 was 6.40.
